From patent US12594276B2, “Inhibitors of human immunodeficiency virus replication” (ViiV Healthcare UK (No.5) Limited, priority 2024, dated 2026)
pEC50: −log10 of the molar value.

Columns and labels:
[1] = system: recombinant NL4-3 virus (nef section replaced with Renilla luciferase gene) in MT-2 cells; test: HIV cell culture assay (antiviral activity, luciferase readout); assay type: cell-based; details: Renilla, NL43, MT-2 cells infected for 4-5 days with recombinant NL4-3 Renilla luciferase virus
Outline: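 MT-2 cells were infected for 4-5 days with reporter virus made by transfecting the recombinant NL4-3 proviral clone into 293T cells, in the presence of serial compound dilutions. Luciferase activity was read with a live-cell substrate. EC50 came from the exponential median effect equation, (Fa)=1/[1+(ED50/drug conc.)m].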

[2] = Compound cytotoxicity, XTT-based colorimetric assay; assay type: cell-based; details: human; uninfected MT2 cells, day 4, XTT; read-out: CC50
Outline: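 Cells seeded as for the antiviral assay but left uninfected (MT2). Compound exposure continued to day 4. XTT reagent added and colour read. CC50 calculated.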

Q: With `CCc1cc(C2CCC(F)(F)CC2)nc2nc([C@H](Cc3cc(F)cc(F)c3)NC(=O)Cn3nc(C(F)F)c4c3C(F)(F)[C@@H]3C[C@H]43)n(-c3ccc(Cl)c4c(NS(C)(=O)=O)nn(CCCOC)c34)c(=O)c12` (atropisomer, axis not shown; (P)) [Example 638, N-[(1S)-1-[(3P)-3-[4-chloro-3-methanesulfonamido-1-(3-methoxypropyl)-1H-indazol-7-yl]-7-(4,4-difluorocyclohexyl)-5-ethyl-4-oxo-3H,4H-pyrido[2,3-d]pyrimidin-2-yl]-2-(3,5-difluorophenyl)ethyl]-2-[(2S,4R)-9-(difluoromethyl)-5,5-difluoro-7,8-diazatricyclo[4.3.0.0^2,^4]nona-1(6),8-dien-7-yl]acetamide] as the compound, how does the pEC50 [1] read?
A: 10.74

Q: What about the CC50 at 4 days [2] of the same compound?
A: > 50 nM

Q: With `CCc1cc(C2CCC(F)(F)CC2)nc2nc([C@H](Cc3cc(F)cc(F)c3)NC(=O)Cn3nc(C4CC4)c4c3C(F)(F)[C@@H]3C[C@H]43)n(-c3ccc(Cl)c4c(NS(C)(=O)=O)nn(CCCOC)c34)c(=O)c12` (atropisomer, axis not shown; (P)) [Example 639, N-[(1S)-1-[(3P)-3-[4-chloro-3-methanesulfonamido-1-(3-methoxypropyl)-1H-indazol-7-yl]-7-(4,4-difluorocyclohexyl)-5-ethyl-4-oxo-3H,4H-pyrido[2,3-d]pyrimidin-2-yl]-2-(3,5-difluorophenyl)ethyl]-2-[(2S,4R)-9-cyclopropyl-5,5-difluoro-7,8-diazatricyclo[4.3.0.0^2,^4]nona-1(6),8-dien-7-yl]acetamide] as the compound, how does the pEC50 [1] read?
A: 10.60

Q: What about the CC50 at 4 days [2] of the same compound?
A: > 50 nM

Q: With `CS(=O)(=O)Nc1nn(CCN(CCC(F)(F)F)CCC(F)(F)F)c2c(-n3c([C@H](Cc4cc(F)cc(F)c4)NC(=O)Cn4nc(C(F)F)c5c4C(F)(F)[C@@H]4C[C@H]54)nc4nc(C5CCC(F)(F)CC5)ccc4c3=O)ccc(Cl)c12` (atropisomer, axis not shown; (P)) [Example 671, N-[(1S)-1-[(3P)-3-(1-{2-[bis(3,3,3-trifluoropropyl)amino]ethyl}-4-chloro-3-methanesulfonamido-1H-indazol-7-yl)-7-(4,4-difluorocyclohexyl)-4-oxo-3H,4H-pyrido[2,3-d]pyrimidin-2-yl]-2-(3,5-difluorophenyl)ethyl]-2-[(2S,4R)-9-(difluoromethyl)-5,5-difluoro-7,8-diazatricyclo[4.3.0.0^2,^4]nona-1(6),8-dien-7-yl]acetamide] as the compound, how does the pEC50 [1] read?
A: 10.57

Q: What about the CC50 at 4 days [2] of the same compound?
A: > 20 nM

Q: With `CS(=O)(=O)Nc1nn(CCN2CCC(F)(F)CC2)c2c(-n3c([C@H](Cc4cc(F)cc(F)c4)NC(=O)Cn4nc(C(F)F)c5c4C(F)(F)[C@@H]4C[C@H]54)nc4nc(C5CCC(F)(F)CC5)cc(CO)c4c3=O)ccc(Cl)c12` (atropisomer, axis not shown; (P)) [Example 675, N-[(1S)-1-[(3P)-3-{4-chloro-1-[2-(4,4-difluoropiperidin-1-yl)ethyl]-3-methanesulfonamido-1H-indazol-7-yl}-7-(4,4-difluorocyclohexyl)-5-(hydroxymethyl)-4-oxo-3H,4H-pyrido[2,3-d]pyrimidin-2-yl]-2-(3,5-difluorophenyl)ethyl]-2-[(2S,4R)-9-(difluoromethyl)-5,5-difluoro-7,8-diazatricyclo[4.3.0.0^2,4]nona-1(6),8-dien-7-yl]acetamide] as the compound, how does the pEC50 [1] read?
A: 10.51

Q: And the CC50 at 4 days [2]?
A: > 20 nM

Q: With `COCc1cc(C2CCC(F)(F)CC2)nc2nc([C@H](Cc3cc(F)cc(F)c3)NC(=O)Cn3nc(C(F)F)c4c3C(F)(F)[C@@H]3C[C@H]43)n(-c3ccc(Cl)c4c(NS(C)(=O)=O)nn(CCN5CCC(F)(F)CC5)c34)c(=O)c12` (atropisomer, axis not shown; (P)) [Example 676, N-[(1S)-1-[(3P)-3-{4-chloro-1-[2-(4,4-difluoropiperidin-1-yl)ethyl]-3-methanesulfonamido-1H-indazol-7-yl}-7-(4,4-difluorocyclohexyl)-5-(methoxymethyl)-4-oxo-3H,4H-pyrido[2,3-d]pyrimidin-2-yl]-2-(3,5-difluorophenyl)ethyl]-2-[(2S,4R)-9-(difluoromethyl)-5,5-difluoro-7,8-diazatricyclo[4.3.0.0^2,^4]nona-1(6),8-dien-7-yl]acetamide] as the compound, how does the pEC50 [1] read?
A: 10.96

Q: And the CC50 at 4 days [2]?
A: > 20 nM

Q: With `Cc1cc(C2CCC(F)(F)CC2)nc2nc([C@H](Cc3cc(F)cc(F)c3)NC(=O)Cn3nc(C(F)F)c4c3C(F)(F)[C@@H]3C[C@H]43)n(-c3ccc(Cl)c4c(NS(C)(=O)=O)nn(C[C@@H](C)N5C[C@H](F)C[C@H](F)C5)c34)c(=O)c12` (atropisomer, axis not shown; (P)) [Example 683, N-[(1S)-1-[(3P)-3-{4-chloro-1-[(2R)-2-[(3R,5S)-3,5-difluoropiperidin-1-yl]propyl]-3-methanesulfonamido-1H-indazol-7-yl}-7-(4,4-difluorocyclohexyl)-5-methyl-4-oxo-3H,4H-pyrido[2,3-d]pyrimidin-2-yl]-2-(3,5-difluorophenyl)ethyl]-2-[(2S,4R)-9-(difluoromethyl)-5,5-difluoro-7,8-diazatricyclo[4.3.0.0^2,^4]nona-1(6),8-dien-7-yl]acetamide] as the compound, how does the pEC50 [1] read?
A: 11.22

Q: And the CC50 at 4 days [2]?
A: > 20 nM

Q: What does the source list for `C[C@H](Cn1nc(NS(C)(=O)=O)c2c(Cl)ccc(-n3c([C@H](Cc4cc(F)cc(F)c4)NC(=O)Cn4nc(C(F)F)c5c4C(F)(F)[C@@H]4C[C@H]54)nc4nc(C5CCC(F)(F)CC5)cc(C5CC5)c4c3=O)c21)N1C[C@H](F)C[C@H](F)C1` (atropisomer, axis not shown; (P)) [Example 684, N-[(1S)-1-[(3P)-3-{4-chloro-1-[(2R)-2-[(3R,5S)-3,5-difluoropiperidin-1-yl]propyl]-3-methanesulfonamido-1H-indazol-7-yl}-5-cyclopropyl-7-(4,4-difluorocyclohexyl)-4-oxo-3H,4H-pyrido[2,3-d]pyrimidin-2-yl]-2-(3,5-difluorophenyl)ethyl]-2-[(2S,4R)-9-(difluoromethyl)-5,5-difluoro-7,8-diazatricyclo[4.3.0.0^2,^4]nona-1(6),8-dien-7-yl]acetamide]?
A: pEC50 [1]: 10.85; CC50 at 4 days [2]: > 20 nM

Q: Which results are given for `Cc1cc(C2(F)CCC(F)(F)CC2)nc2nc([C@H](Cc3cc(F)cc(F)c3)NC(=O)Cn3nc(C(F)F)c4c3C(F)(F)[C@@H]3C[C@H]43)n(-c3ccc(Cl)c4c(NS(C)(=O)=O)nn(C[C@@H](C)N5C[C@H](F)C[C@H](F)C5)c34)c(=O)c12` (atropisomer, axis not shown; (P)) [Example 697, N-[(1S)-1-[(3P)-3-{4-chloro-1-[(2R)-2-[(3R,5S)-3,5-difluoropiperidin-1-yl]propyl]-3-methanesulfonamido-1H-indazol-7-yl}-5-methyl-4-oxo-7-(1,4,4-trifluorocyclohexyl)-3H,4H-pyrido[2,3-d]pyrimidin-2-yl]-2-(3,5-difluorophenyl)ethyl]-2-[(2S,4R)-9-(difluoromethyl)-5,5-difluoro-7,8-diazatricyclo[4.3.0.0^2,^4]nona-1(6),8-dien-7-yl]acetamide]?
A: pEC50 [1]: 11.05; CC50 at 4 days [2]: > 20 nM
